For this experiment, the target named is T1, VEGF-R (vascular endothelial growth factor receptor-2) (Rattus norvegicus, UniProt O08775).
T1 construct: polyhistidine (6xHis) (N)
Nature of the experiment: VEGF-R screening assay (33P FlashPlate kinase assay). Format: biochemical.

[1] abbreviates: Table 4 kinase selectivity, read-out: IC50, Assay 1 VEGF-R.
Where [2] appears, read: Tables 1-3, >10 or >100 = no 50% inhibition at highest dose tested, read-out: VEGF-R IC50.

Like-named read-outs stand apart in the source and are kept apart here.

10 compounds from US6710048B2, “Pyrazine derivatives as modulators of tyrosine kinases” (Ortho-McNeil Pharmaceutical, Inc., priority 2000, dated 2004) can be followed below.

In general, IC50 refers to the point on the concentration scale where inhibition reaches its midpoint.

T1 sequence (O08775 786-1343): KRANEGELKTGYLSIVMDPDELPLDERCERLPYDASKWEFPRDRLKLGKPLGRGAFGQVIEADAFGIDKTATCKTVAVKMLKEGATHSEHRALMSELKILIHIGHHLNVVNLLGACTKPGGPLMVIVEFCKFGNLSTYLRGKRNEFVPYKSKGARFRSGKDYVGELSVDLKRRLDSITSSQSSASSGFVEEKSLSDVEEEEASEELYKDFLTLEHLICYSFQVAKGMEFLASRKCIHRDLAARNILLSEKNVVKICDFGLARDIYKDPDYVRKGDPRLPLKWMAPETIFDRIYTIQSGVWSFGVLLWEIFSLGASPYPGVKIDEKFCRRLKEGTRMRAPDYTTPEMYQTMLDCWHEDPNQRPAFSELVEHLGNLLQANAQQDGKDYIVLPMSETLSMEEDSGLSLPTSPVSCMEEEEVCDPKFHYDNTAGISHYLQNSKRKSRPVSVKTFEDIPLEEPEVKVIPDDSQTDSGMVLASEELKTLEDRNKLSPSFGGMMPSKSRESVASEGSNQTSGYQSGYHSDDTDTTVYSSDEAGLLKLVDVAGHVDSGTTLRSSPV

In the case of `OCCCNc1cncc(-c2cncc(Nc3cccc(Cl)c3)n2)c1` [Cmd 4], the IC50 runs as follows: under setting [1], 42 nM; under setting [2], 80 nM.

Regarding `OCCCCNc1cncc(-c2cncc(Nc3cccc(Cl)c3)n2)c1` [Cmd 32], the IC50 under setting [1] came to 59 nM and the IC50 under setting [2] came to 60 nM.

For the compound `CN(C)CCNc1cncc(-c2cncc(Nc3cccc(Cl)c3)n2)c1` [Cmd 33, N′-[5-[6-[(3-chlorophenyl)amino]pyrazinyl]-3-pyridinyl]-N^2,N^2-dimethyl-1,2-ethanediamine], the IC50 reads like this: under setting [1], 70 nM; under setting [2], 70 nM.

For `CN(C)CCCNc1cncc(-c2cncc(Nc3cccc(Cl)c3)n2)c1` [Cmd 35], the IC50 was 94 nM under setting [1] and 90 nM under setting [2].

As for `O=C(NCCCO)c1cncc(-c2cncc(Nc3cccc(Cl)c3)n2)c1` [Cmd 39], the IC50 came out at 2500 nM under setting [1] and 2500 nM under setting [2].

With `Clc1cccc(Nc2cncc(-c3cncc(NCCCc4ccncc4)c3)n2)c1` [Cmd 71], the IC50 reads like this: under setting [1], 52 nM; under setting [2], 52 nM.

As for `Clc1cccc(Nc2cncc(-c3cncc(NCCCc4cccnc4)c3)n2)c1` [Cmd 72], the IC50 reads like this: under setting [1], 89 nM; under setting [2], 89 nM.

For `Clc1cccc(Nc2cncc(-c3cncc(NCCCN4CCCCC4)c3)n2)c1` [Cmd 73], the IC50 was 105 nM under setting [1] and 105 nM under setting [2].

With `Clc1cccc(Nc2cncc(-c3cncc(NCCCn4cccn4)c3)n2)c1` [Cmd 75], the IC50 is, setting by setting: under setting [1], 79 nM; under setting [2], 79 nM.

Turning to `Clc1cccc(Nc2cncc(-c3cncc(NCCCn4cncn4)c3)n2)c1` [Cmd 76], the IC50 was found to be 52 nM under setting [1] and 52 nM under setting [2].
